In PubChem BioAssay AID248 (DTP/NCI, 2004):
Values joined by “and” are separate entries in the source; they are usually repeats but may differ in a detail not shown here. Equal entries are not always repeated. Toxic doses and inconclusive results are not listed. Rule as the data show it: active = T/C of 150% or more; inactive = T/C below 125%.

Tested on: L1210 leukemia ip in BDF1 mice, survival T/C
Assay: NCI In Vivo Anticancer Drug Screen. Data for tumor model L1210 Leukemia (intraperitoneal) in B6D2F1 (BDF1) mice
Conditions: endpoint: mean survival time, higher = longer survival
Outline: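 Ratio derived from survival: compound-dosed mice over vehicle-dosed mice, all bearing a transplantable tumor.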

[1] = dose: 100.0 mg/kg/injection, schedule: Q01DX009 (ip), vehicle: saline
[2] = dose: 100.0 mg/kg/injection, schedule: Q04DX003 (ip), vehicle: saline
[3] = dose: 200.0 mg/kg/injection, schedule: Q01DX009 (ip), vehicle: saline
[4] = dose: 200.0 mg/kg/injection, schedule: Q04DX003 (ip), vehicle: saline
[5] = dose: 400.0 mg/kg/injection, schedule: Q04DX003 (ip), vehicle: saline
[6] = dose: 100.0 mg/kg/injection, schedule: Q01DX001 (ip), vehicle: saline
[7] = dose: 200.0 mg/kg/injection, schedule: Q01DX001 (ip), vehicle: saline
[8] = dose: 400.0 mg/kg/injection, schedule: Q01DX001 (ip), vehicle: saline

Measured: T/C

CO[C@H](C)[C@](O)(C(=O)OCC1=CCN2CC[C@@H](O)[C@H]12)C(C)C
inactive: dose: 65.0 mg/kg/injection, schedule: Q01DX009 (ip), vehicle: saline 95 % of control and 109 % of control | dose: 75.0 mg/kg/injection, schedule: Q01DX001 (ip), vehicle: acetone 106 % of control | [1] 95 % of control and 105 % of control | dose: 150.0 mg/kg/injection, schedule: Q01DX001 (ip), vehicle: acetone 103 % of control | dose: 150.0 mg/kg/injection, schedule: Q01DX009 (ip), vehicle: saline 94 % of control | dose: 300.0 mg/kg/injection, schedule: Q01DX001 (ip), vehicle: acetone 106 % of control

NC(CSSCC(N)=NC1CCCCC1)=NC1CCCCC1
inactive: dose: 3.0 mg/kg/injection, schedule: Q01DX009 (ip), vehicle: saline 96 % of control and 103 % of control | dose: 6.0 mg/kg/injection, schedule: Q01DX009 (ip), vehicle: saline 106 % of control and 90 % of control | dose: 6.25 mg/kg/injection, schedule: Q04DX002 (ip), vehicle: saline with Tween-80 124 % of control | dose: 12.0 mg/kg/injection, schedule: Q01DX009 (ip), vehicle: saline 103 % of control and 104 % of control | dose: 12.5 mg/kg/injection, schedule: Q01DX001 (ip), vehicle: saline with Tween-80 94 % of control | dose: 12.5 mg/kg/injection, schedule: Q01DX009 (ip), vehicle: carboxymethylcellulose (CMC) 100 % of control and 105 % of control | dose: 12.5 mg/kg/injection, schedule: Q04DX002 (ip), vehicle: saline with Tween-80 109 % of control | dose: 25.0 mg/kg/injection, schedule: Q01DX001 (ip), vehicle: saline with Tween-80 100 % of control | dose: 25.0 mg/kg/injection, schedule: Q01DX009 (ip), vehicle: carboxymethylcellulose (CMC) 103 % of control | dose: 25.0 mg/kg/injection, schedule: Q04DX002 (ip), vehicle: carboxymethylcellulose (CMC) 96 % of control and 91 % of control | dose: 25.0 mg/kg/injection, schedule: Q04DX002 (ip), vehicle: saline with Tween-80 102 % of control | dose: 50.0 mg/kg/injection, schedule: Q04DX002 (ip), vehicle: carboxymethylcellulose (CMC) 95 % of control | dose: 100.0 mg/kg/injection, schedule: Q04DX003 (ip), vehicle: carboxymethylcellulose (CMC) 104 % of control | dose: 200.0 mg/kg/injection, schedule: Q04DX003 (ip), vehicle: carboxymethylcellulose (CMC) 96 % of control

CCOC(=O)/C(C)=N\N(C)C
inactive: [1] 92 % of control | [2] 97 % of control | [3] 92 % of control | [4] 101 % of control | [5] 88 % of control

O=C(Nc1ccc(F)cc1)OCC1CCCO1 (configuration not stated)
inactive: dose: 100.0 mg/kg/injection, schedule: Q01DX001 (ip), vehicle: carboxymethylcellulose (CMC) 100 % of control | dose: 100.0 mg/kg/injection, schedule: Q01DX009 (ip), vehicle: carboxymethylcellulose (CMC) 102 % of control and 103 % of control | dose: 100.0 mg/kg/injection, schedule: Q04DX002 (ip), vehicle: carboxymethylcellulose (CMC) 100 % of control and 102 % of control | dose: 200.0 mg/kg/injection, schedule: Q01DX001 (ip), vehicle: carboxymethylcellulose (CMC) 103 % of control | dose: 200.0 mg/kg/injection, schedule: Q01DX009 (ip), vehicle: carboxymethylcellulose (CMC) 92 % of control and 97 % of control | dose: 200.0 mg/kg/injection, schedule: Q04DX002 (ip), vehicle: carboxymethylcellulose (CMC) 95 % of control and 98 % of control | dose: 400.0 mg/kg/injection, schedule: Q01DX001 (ip), vehicle: carboxymethylcellulose (CMC) 92 % of control | dose: 400.0 mg/kg/injection, schedule: Q01DX009 (ip), vehicle: carboxymethylcellulose (CMC) 96 % of control and 102 % of control | dose: 400.0 mg/kg/injection, schedule: Q04DX002 (ip), vehicle: carboxymethylcellulose (CMC) 92 % of control and 96 % of control

CCCCN1C(=O)CCC1=O
inactive: [2] 110 % of control | [4] 103 % of control | [5] 110 % of control

COc1cc(C(=O)OC(C)CN2CCOCC2)cc(OC)c1OC (configuration not stated)
inactive: dose: 25.0 mg/kg/injection, schedule: Q01DX009 (ip), vehicle: saline 90 % of control | dose: 25.0 mg/kg/injection, schedule: Q04DX003 (ip), vehicle: saline 95 % of control | dose: 50.0 mg/kg/injection, schedule: Q01DX009 (ip), vehicle: saline 101 % of control | dose: 50.0 mg/kg/injection, schedule: Q04DX003 (ip), vehicle: saline 109 % of control | [1] 100 % of control | [2] 101 % of control | [3] 90 % of control | [4] 101 % of control | [5] 111 % of control

Cc1ccc(CNC(=O)NCCCCCCNC(=O)NCc2ccc(C)cc2)cc1
inactive: dose: 100.0 mg/kg/injection, schedule: Q01DX009 (ip), vehicle: other 95 % of control | dose: 200.0 mg/kg/injection, schedule: Q01DX009 (ip), vehicle: other 100 % of control | dose: 400.0 mg/kg/injection, schedule: Q01DX009 (ip), vehicle: other 100 % of control

CCCCOC(=S)SCC(=O)O
inactive: dose: 100.0 mg/kg/injection, schedule: Q04DX002 (ip), vehicle: other 103 % of control | dose: 200.0 mg/kg/injection, schedule: Q04DX002 (ip), vehicle: other 106 % of control | dose: 400.0 mg/kg/injection, schedule: Q04DX002 (ip), vehicle: other 94 % of control

O=C(Oc1c(Cl)cc(Cl)cc1C=Nc1ccc(Cl)cc1)c1ccccc1
inactive: dose: 100.0 mg/kg/injection, schedule: Q01DX009 (ip), vehicle: Klucel (hydroxypropylcellulose) (HPC) 103 % of control | dose: 200.0 mg/kg/injection, schedule: Q01DX009 (ip), vehicle: Klucel (hydroxypropylcellulose) (HPC) 104 % of control | dose: 400.0 mg/kg/injection, schedule: Q01DX009 (ip), vehicle: Klucel (hydroxypropylcellulose) (HPC) 96 % of control

Nc1ccc(C(=O)NCCCC(=O)O)cc1
inactive: [6] 108 % of control | [7] 103 % of control | [8] 95 % of control

CC(=O)Oc1ccc(N2C(=O)C=CC2=O)cc1 (tested in a mixture with another compound)
inactive: dose: 100.0 mg/kg/injection, schedule: Q04DX003 (ip), vehicle: acetone 96 % of control | dose: 100.0 mg/kg/injection, schedule: Q04DX003 (ip), vehicle: other 89 % of control | dose: 200.0 mg/kg/injection, schedule: Q04DX003 (ip), vehicle: acetone 96 % of control | dose: 400.0 mg/kg/injection, schedule: Q04DX003 (ip), vehicle: acetone 100 % of control | dose: 400.0 mg/kg/injection, schedule: Q04DX003 (ip), vehicle: other 87 % of control

Nc1ccccc1SC(CC(=O)c1ccccc1)c1ccc(Cl)cc1 (configuration not stated)
inactive: dose: 100.0 mg/kg/injection, schedule: Q01DX005 (ip), vehicle: Klucel (hydroxypropylcellulose) (HPC) 91 % of control | dose: 100.0 mg/kg/injection, schedule: Q04DX002 (ip), vehicle: Klucel (hydroxypropylcellulose) (HPC) 89 % of control | dose: 200.0 mg/kg/injection, schedule: Q01DX005 (ip), vehicle: Klucel (hydroxypropylcellulose) (HPC) 97 % of control | dose: 200.0 mg/kg/injection, schedule: Q04DX002 (ip), vehicle: Klucel (hydroxypropylcellulose) (HPC) 95 % of control | dose: 400.0 mg/kg/injection, schedule: Q01DX005 (ip), vehicle: Klucel (hydroxypropylcellulose) (HPC) 97 % of control | dose: 400.0 mg/kg/injection, schedule: Q04DX002 (ip), vehicle: Klucel (hydroxypropylcellulose) (HPC) 100 % of control

O=S1(=O)C=CCCC=C1
inactive: dose: 50.0 mg/kg/injection, schedule: Q04DX002 (ip), vehicle: Klucel (hydroxypropylcellulose) (HPC) 105 % of control | dose: 75.0 mg/kg/injection, schedule: Q04DX002 (ip), vehicle: Klucel (hydroxypropylcellulose) (HPC) 112 % of control

O=P(O)(N(CCCl)CCCl)N1CCN(P(=O)(O)N(CCCl)CCCl)CC1
inactive: dose: 10.0 mg/kg/injection, schedule: Q01DX015 (ip), vehicle: saline 110 % of control | dose: 30.0 mg/kg/injection, schedule: Q01DX015 (ip), vehicle: saline 119 % of control | [6] 115 % of control | [7] 113 % of control | [8] 124 % of control

CCOC(=O)C(C)SCC(CSC(C)C(=O)OCC)(CSC(C)C(=O)OCC)CSC(C)C(=O)OCC (configuration not stated)
inactive: dose: 100.0 mg/kg/injection, schedule: Q01DX001 (ip), vehicle: saline with Tween-80 104 % of control | dose: 200.0 mg/kg/injection, schedule: Q01DX001 (ip), vehicle: saline with Tween-80 107 % of control | dose: 400.0 mg/kg/injection, schedule: Q01DX001 (ip), vehicle: saline with Tween-80 104 % of control

O=CC1OC(c2ccccc2)OC2COC(c3ccccc3)OC12 (configuration not stated)
inactive: dose: 100.0 mg/kg/injection, schedule: Q01DX001 (ip), vehicle: Klucel (hydroxypropylcellulose) (HPC) 103 % of control | dose: 200.0 mg/kg/injection, schedule: Q01DX001 (ip), vehicle: Klucel (hydroxypropylcellulose) (HPC) 97 % of control | dose: 400.0 mg/kg/injection, schedule: Q01DX001 (ip), vehicle: Klucel (hydroxypropylcellulose) (HPC) 93 % of control
